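A five-concentration, 48-hour dose response in 96-well plates underlies each endpoint, interpolated linearly between surrounding concentrations. Here, GI50 denotes the concentration required for 50% inhibition of growth. TGI denotes the concentration required for complete inhibition of growth.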

Common to all, as to experiment: NCI-60 cell line screen, 48 h
Assay [1] relates to LOX IMVI melanoma.
For assay [2], the system named is OVCAR-3 ovarian.
For assay [3], the system named is 786-0 renal.
In assay [4] the test system is SK-MEL-28 melanoma.
The test system of assay [5] is MDA-MB-231 breast.
The subject of assay [6] is SK-MEL-5 melanoma.
The subject of assay [7] is SF-268 CNS.
Assay [8] deals with SW-620 colon.
In assay [9] the test system is SN12C renal.
Assay [10] has as its system SK-MEL-2 melanoma.

Consider `O=C1c2ccccc2C(=O)c2c1oc1c2c(=O)[nH]c2ccc(Cl)cc21`, for which the GI50 was 321 nM in [1]; 239 nM in assay [2]; 223 nM in [3]; 339 nM in assay [4]; 165 nM in assay [5]; 305 nM in assay [6]. In addition, the GI50 was 456 nM in [7], 332 nM in assay [8], 198 nM in assay [9] and 1750 nM in assay [10]. Further, the TGI is 1300 nM in assay [1]; 557 nM in assay [2]; 543 nM in [3]; 1230 nM in assay [4]; 519 nM in assay [5]; 1210 nM in [6]. For the same compound, the TGI was 3990 nM in [7], 1010 nM in [8], 463 nM in [9] and 5180 nM in assay [10].

Turning to `CCN(CC)CCn1c(=O)c2cc(OC)c(OC)cc2c2ccc3cc4c(cc3c21)OCO4`, the GI50 in assay [1] was 139 nM; in [2] it was 7570 nM; in [3] it was 479 nM; in [4], 12000 nM; in [5] it was 1290 nM; in [6], 193 nM. Besides, the GI50 in [7] is 228 nM; in assay [8], 692 nM; in [9], 455 nM; in assay [10], greater than 100000 nM. The TGI in [1] was 584 nM; in assay [2], 25500 nM; in [3] it was 13400 nM; in assay [4] it was 24800 nM; in [5] it was 3660 nM; in assay [6], 457 nM. Besides, the TGI in assay [7] was 37800 nM; in [8], 23200 nM; in [9] it was 20200 nM; in [10] it was greater than 100000 nM.

Take `CCOC(=O)c1c2c(n3ccc(NC(=O)CCN4CCCCC4)cc13)C(=O)c1ncccc1C2=O`: the GI50 in assay [1] was 301 nM; in assay [2] it was 1140 nM; in assay [3], 124 nM; in assay [4], 668 nM; in assay [5], 1790 nM; in [6], 541 nM. Further, the GI50 is 50.3 nM in assay [7], 26.9 nM in assay [8], 111 nM in [9] and 3990 nM in [10]. Besides, the TGI in [1] was determined as 777 nM; in [2], 2640 nM; in [3], 2320 nM; in assay [4], 2380 nM; in assay [5], 3770 nM; in assay [6], 1980 nM. The TGI in assay [7] was 2250 nM; in assay [8], 2380 nM; in assay [9], 2330 nM; in assay [10], 23800 nM.

On to `COc1cc2c(cc1O)c(=O)n(CCN(C)C)c1c3cc4c(cc3ncc21)OCO4`, for which the GI50 in assay [1] is less than 10 nM; in [2] it was 38.8 nM; in [3], less than 10 nM; in [4], 53 nM; in assay [5], 61.6 nM; in [6] it was 12.1 nM. In addition, the GI50 in assay [7] was less than 10 nM; in assay [8], less than 10 nM; in assay [9], less than 10 nM; in assay [10], 136 nM. Moreover, the TGI in assay [1] came out at 24.5 nM; in assay [2], 423 nM; in assay [3] it was 29.1 nM; in [4] it was 1010 nM; in assay [5], 5580 nM; in assay [6], 31.2 nM. Besides, the TGI in assay [7] is 19900 nM; in assay [8] it was greater than 33200 nM; in [9] it was 10500 nM; in assay [10], 360 nM.

Regarding `COc1cc(NS(C)(=O)=O)ccc1Cc1c2ccccc2nc2ccccc12`, the GI50 in [1] was 79.3 nM; in assay [2], 785 nM; in assay [3], 139 nM; in assay [4], 672 nM; in [5], 1280 nM; in assay [6] it was 121 nM. Further, the GI50 in assay [7] was 179 nM; in assay [8], 121 nM; in assay [9] it was 74.2 nM; in [10], 1430 nM. The TGI in assay [1] is 1480 nM; in [2] it was 2060 nM; in assay [3], 640 nM; in [4], 2360 nM; in assay [5], 2780 nM; in assay [6], 1110 nM. For the same compound, the TGI in assay [7] was 6030 nM; in assay [8], 2340 nM; in [9], 1170 nM; in assay [10], 3200 nM.

In the case of `O=C(CCCC(=O)N/N=C/c1cc(Cl)ccc1O)N/N=C\c1cc(Cl)ccc1O`, the GI50 in assay [1] is 1690 nM; in assay [2], 847 nM; in assay [3] it was 3590 nM; in [4] it was 3680 nM; in assay [5], 2630 nM; in [6], 2500 nM. For the same compound, the GI50 in [7] is 2500 nM; in assay [8], 3690 nM; in assay [9], 4300 nM; in assay [10], greater than 100000 nM. Further, the TGI in [1] was 25400 nM; in assay [2] it was greater than 100000 nM; in [3], greater than 100000 nM; in [4] it was greater than 100000 nM; in assay [5], 91600 nM; in assay [6], greater than 100000 nM. Moreover, the TGI in [7], in [8], in assay [9] and in assay [10] was greater than 100000 nM in each case.

Turning to `CC(C)=Cc1cccc2[nH]c(O)c(N=Nc3ccc(S(N)(=O)=O)cc3)c12`, the GI50 in [1] is 2670 nM; in [2], 11500 nM; in assay [3], 9070 nM; in [4], greater than 25000 nM; in [5], 7170 nM; in assay [7], 12400 nM. Further, the GI50 is 1140 nM in assay [8], greater than 25000 nM in [9] and greater than 25000 nM in [10]. Also, the TGI in assay [1], in [2], in assay [3], in assay [4], in assay [5] and in assay [6] was greater than 25000 nM throughout. Further, the TGI in [7], in [8], in [9] and in assay [10] was greater than 25000 nM throughout.
